Measured values published in publication PMC3268671 (Cell, 2012).
pKd: −log10 of the molar value.

Target: PfHRPII HT-GFP (HT/RLLYE-GFP)
Assay type: binding, Plasmodium falciparum

PI(3)P
pKd: < 5.30
